Assay results published in ChEMBL document CHEMBL1128913, “Synthesis and in vitro cytotoxicity of cryptophycins and related analogs” (Bioorg Med Chem Lett, 1996).
≈ marks a conversion by molar mass, not a printed value.

What was measured:
Type in all cases: functional, cell-based
[1] = tested on: KB; test: Cytotoxic activity against Human nasopharyngeal KB cell line
[2] = tested on: HT-29; test: Cytotoxic activity against HT-29 human colon adenocarcinoma cells
[3] = tested on: DA-3 cell line; test: Cytotoxic activity against DA-3 mouse mammary adenocarcinoma cells
[4] = tested on: B16-F10; test: Cytotoxic activity against B16F10 mouse melanoma cells
[5] = tested on: KB; test: Cytotoxic activity against KB human nasopharyngeal carcinoma cells
[6] = tested on: KB; test: Cytotoxic activity against KBV vinblastine resistant KB cells; settings: Homo sapiens

COc1ccc(C[C@H]2NC(=O)/C=C/C[C@@H]([C@H](C)[C@H]3O[C@@H]3c3ccccc3)OC(=O)[C@H](CC(C)C)OC(=O)[C@H](C)CNC2=O)cc1Cl [CRYPTOPHYCIN A]
IC50 [1]: 0.005 ng/mL (≈ 0.00763 nM) | IC50 [2]: 2 pM | IC50 [3]: 2 pM | IC50 [4]: 30 pM | IC50 [5]: 4 pM | IC50 [6]: 35 pM
